{
  "source": "patent US20250163052A1",
  "about": "“cGAS INHIBITORS AND USES THEREOF” (Cornell University, priority 2022, published 2025)",
  "key": {"5HT2B": {"target": "5HT2B (Homo sapiens, UniProt P41595)", "sequence (P41595 whole entry, species assumed)": "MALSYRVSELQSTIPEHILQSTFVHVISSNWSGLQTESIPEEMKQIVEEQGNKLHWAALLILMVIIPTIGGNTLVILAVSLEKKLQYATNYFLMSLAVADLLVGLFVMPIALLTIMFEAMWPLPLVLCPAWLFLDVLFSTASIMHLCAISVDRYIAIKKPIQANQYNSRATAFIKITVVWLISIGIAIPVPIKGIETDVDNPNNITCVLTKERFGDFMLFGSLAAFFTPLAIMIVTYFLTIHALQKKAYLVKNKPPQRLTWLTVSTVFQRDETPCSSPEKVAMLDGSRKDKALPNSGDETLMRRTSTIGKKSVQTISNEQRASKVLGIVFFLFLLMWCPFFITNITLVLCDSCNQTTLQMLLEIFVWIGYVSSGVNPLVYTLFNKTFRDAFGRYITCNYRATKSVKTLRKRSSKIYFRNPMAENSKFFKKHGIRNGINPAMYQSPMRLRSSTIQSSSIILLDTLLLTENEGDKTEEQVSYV", "assay": "Safety panel screening, 5HT2B Ca2+ mobilization", "format": "cell-based"}, "NFkB-SEAP": {"tested_on": "NFkB-SEAP", "assay": "THP1-Dual cells transfected with DNA, nfkb expression (Quantiblue)", "format": "cell-based", "settings": "Homo sapiens", "procedure,_shortened": "(§1)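 Readouts after overnight incubation: Quantiluc luminescence for Ifnb, Quantiblue for nfkb (both in supernatant) and CellTiter-Glo for viability. Before the DNA stimulus (2 ug/ml, lipofectamine transfection), THP1-Dual cells received compound at several dilutions for 4 h.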"}, "[1]": {"assay": "Metabolic stability in mouse liver microsomes"}, "[2]": {"assay": "Pharmacokinetic study, plasma and brain PK parameters after I.P. dosing", "format": "in vivo, mouse", "settings": "25 mg/Kg I.P.; for Kp: brain/plasma, 25 mg/kg", "method": "To test pharmacokinetics, TDI-6570 ([…] solution in water containing 0.2% Tween 80) was administered to 8-weeks old CD-1 male mice (n=3 for each time point) intraperitoneally (IP) and both plasma (EDTA-K2) and brain tissues were collected at various time points (0.5, 2, 4, 8 and 24 hours post drug administration). Transcardial perfusion were performed with saline prior to brain collection. Bioanalysis of brain tissue and plasma extracts were performed by LC-MS/MS."}, "h-cGAS": {"target": "h-cGAS (Homo sapiens, UniProt Q8N884)", "sequence (Q8N884 whole entry)": "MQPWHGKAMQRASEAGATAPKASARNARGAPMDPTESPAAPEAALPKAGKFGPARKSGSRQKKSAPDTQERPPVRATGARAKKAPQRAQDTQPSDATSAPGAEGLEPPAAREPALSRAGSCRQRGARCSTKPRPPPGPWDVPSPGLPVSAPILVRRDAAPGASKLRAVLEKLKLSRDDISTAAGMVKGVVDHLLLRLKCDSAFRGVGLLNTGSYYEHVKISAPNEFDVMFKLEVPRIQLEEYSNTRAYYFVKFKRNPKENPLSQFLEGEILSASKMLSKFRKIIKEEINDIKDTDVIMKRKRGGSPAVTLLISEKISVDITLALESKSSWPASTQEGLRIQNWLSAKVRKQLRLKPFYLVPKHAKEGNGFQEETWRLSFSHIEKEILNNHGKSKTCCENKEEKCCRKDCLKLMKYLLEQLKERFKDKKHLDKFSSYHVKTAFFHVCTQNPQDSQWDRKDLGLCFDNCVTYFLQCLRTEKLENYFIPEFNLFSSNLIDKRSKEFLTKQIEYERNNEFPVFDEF", "assay": "Cell-free human cGAS enzyme inhibition assay (ATP depletion, Kinase-Glo Max)", "format": "biochemical", "settings": "3 h"}, "hERG": {"target": "hERG (Homo sapiens, UniProt Q12809)", "sequence (Q12809 whole entry)": "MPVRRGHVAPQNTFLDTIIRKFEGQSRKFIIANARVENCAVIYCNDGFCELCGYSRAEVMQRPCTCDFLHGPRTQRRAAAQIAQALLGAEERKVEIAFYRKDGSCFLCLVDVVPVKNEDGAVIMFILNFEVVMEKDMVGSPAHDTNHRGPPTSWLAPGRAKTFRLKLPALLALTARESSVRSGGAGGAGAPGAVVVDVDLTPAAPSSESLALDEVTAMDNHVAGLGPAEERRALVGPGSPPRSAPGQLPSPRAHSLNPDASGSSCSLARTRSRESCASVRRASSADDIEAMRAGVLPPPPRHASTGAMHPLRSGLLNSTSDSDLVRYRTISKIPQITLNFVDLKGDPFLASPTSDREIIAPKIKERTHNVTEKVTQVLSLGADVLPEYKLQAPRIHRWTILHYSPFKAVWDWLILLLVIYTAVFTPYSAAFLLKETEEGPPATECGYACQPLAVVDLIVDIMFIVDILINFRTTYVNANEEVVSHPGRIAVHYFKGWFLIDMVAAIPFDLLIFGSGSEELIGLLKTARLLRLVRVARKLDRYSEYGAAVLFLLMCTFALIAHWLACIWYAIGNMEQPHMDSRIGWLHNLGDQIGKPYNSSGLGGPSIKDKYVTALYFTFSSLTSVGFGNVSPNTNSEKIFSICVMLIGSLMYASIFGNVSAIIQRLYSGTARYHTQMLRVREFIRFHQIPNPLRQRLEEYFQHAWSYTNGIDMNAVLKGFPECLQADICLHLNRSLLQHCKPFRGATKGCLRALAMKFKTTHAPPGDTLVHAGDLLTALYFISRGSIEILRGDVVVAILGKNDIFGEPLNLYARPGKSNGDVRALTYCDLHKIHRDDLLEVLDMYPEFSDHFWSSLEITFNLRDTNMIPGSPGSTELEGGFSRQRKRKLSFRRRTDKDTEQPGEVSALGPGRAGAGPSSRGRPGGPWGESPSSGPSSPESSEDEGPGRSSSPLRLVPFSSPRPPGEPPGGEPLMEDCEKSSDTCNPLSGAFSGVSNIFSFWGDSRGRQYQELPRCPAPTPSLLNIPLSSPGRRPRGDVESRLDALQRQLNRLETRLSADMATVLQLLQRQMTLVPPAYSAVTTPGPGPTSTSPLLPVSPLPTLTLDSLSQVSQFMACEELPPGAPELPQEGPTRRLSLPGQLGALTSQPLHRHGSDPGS", "assay": "Safety panel screening, hERG automated patch clamp", "format": "cell-based", "settings": "read-out: Mean percentage inhibition (%) at 10 μM, hERG"}, "PDE4D2": {"target": "PDE4D2 (Homo sapiens, UniProt Q08499)", "sequence (Q08499 303-809)": "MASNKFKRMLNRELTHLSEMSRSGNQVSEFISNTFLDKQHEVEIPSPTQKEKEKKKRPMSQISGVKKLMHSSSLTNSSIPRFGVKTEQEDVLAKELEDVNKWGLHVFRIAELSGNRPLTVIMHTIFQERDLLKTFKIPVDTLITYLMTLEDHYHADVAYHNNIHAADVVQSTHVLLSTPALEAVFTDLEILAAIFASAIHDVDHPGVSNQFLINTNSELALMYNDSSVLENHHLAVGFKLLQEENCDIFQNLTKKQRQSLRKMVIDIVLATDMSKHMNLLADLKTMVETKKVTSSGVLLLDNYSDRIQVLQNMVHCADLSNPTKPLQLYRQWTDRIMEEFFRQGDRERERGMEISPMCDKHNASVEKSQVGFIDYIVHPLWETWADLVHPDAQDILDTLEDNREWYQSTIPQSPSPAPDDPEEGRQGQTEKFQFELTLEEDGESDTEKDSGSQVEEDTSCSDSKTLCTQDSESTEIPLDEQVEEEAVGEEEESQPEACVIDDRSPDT", "assay": "Safety panel screening, PDE4D2 IMAP", "format": "biochemical", "settings": "read-out: Mean percentage inhibition (%) at 10 μM, PDE4D2"}, "m-cGAS": {"target": "m-cGAS (Mus musculus, UniProt Q8C6L5)", "sequence (Q8C6L5 whole entry)": "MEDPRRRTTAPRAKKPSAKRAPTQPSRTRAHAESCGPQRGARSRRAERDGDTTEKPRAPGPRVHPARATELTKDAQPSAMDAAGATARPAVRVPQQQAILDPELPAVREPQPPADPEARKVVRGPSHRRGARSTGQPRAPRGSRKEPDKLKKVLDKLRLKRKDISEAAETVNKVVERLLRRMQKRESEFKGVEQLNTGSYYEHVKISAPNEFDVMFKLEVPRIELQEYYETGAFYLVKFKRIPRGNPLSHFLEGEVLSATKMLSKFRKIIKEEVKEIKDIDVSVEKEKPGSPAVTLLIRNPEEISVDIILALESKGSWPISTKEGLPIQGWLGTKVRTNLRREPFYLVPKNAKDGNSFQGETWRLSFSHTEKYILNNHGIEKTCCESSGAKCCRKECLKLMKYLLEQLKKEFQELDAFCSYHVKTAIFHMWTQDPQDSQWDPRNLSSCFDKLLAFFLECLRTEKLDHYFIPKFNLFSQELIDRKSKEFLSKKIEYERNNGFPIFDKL", "assay": "Cell-free mouse cGAS enzyme inhibition assay (ATP depletion, Kinase-Glo Max)", "format": "biochemical", "settings": "1 h; read-out: m-cGAS, conc. 10 μM"}, "THP1 cells": {"tested_on": "THP1 cells", "assay": "THP1-Dual cells, cell viability (CellTiter-Glo)", "format": "cell-based", "procedure,_shortened": "as §1"}, "IFNB": {"tested_on": "IFNB", "assay": "THP1-Dual cells transfected with DNA, Ifnb expression (Quantiluc)", "format": "cell-based", "settings": "Homo sapiens", "procedure,_shortened": "as §1"}, "D1": {"target": "D1 (Homo sapiens, UniProt P21728)", "sequence (P21728 whole entry)": "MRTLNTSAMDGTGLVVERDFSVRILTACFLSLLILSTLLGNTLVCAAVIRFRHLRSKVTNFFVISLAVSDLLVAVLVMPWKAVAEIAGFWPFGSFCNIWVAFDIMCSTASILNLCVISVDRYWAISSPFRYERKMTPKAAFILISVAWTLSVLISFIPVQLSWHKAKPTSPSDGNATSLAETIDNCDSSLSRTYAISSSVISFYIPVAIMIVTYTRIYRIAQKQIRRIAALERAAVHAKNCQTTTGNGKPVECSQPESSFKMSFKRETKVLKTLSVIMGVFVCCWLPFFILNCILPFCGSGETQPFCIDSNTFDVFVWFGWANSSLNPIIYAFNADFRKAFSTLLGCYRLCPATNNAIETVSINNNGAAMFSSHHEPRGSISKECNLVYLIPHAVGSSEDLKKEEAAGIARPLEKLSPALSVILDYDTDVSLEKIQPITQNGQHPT", "assay": "Safety panel screening, D1 cAMP assay", "format": "cell-based"}, "SET": {"target": "SET (Homo sapiens, UniProt P31645)", "sequence (P31645 whole entry)": "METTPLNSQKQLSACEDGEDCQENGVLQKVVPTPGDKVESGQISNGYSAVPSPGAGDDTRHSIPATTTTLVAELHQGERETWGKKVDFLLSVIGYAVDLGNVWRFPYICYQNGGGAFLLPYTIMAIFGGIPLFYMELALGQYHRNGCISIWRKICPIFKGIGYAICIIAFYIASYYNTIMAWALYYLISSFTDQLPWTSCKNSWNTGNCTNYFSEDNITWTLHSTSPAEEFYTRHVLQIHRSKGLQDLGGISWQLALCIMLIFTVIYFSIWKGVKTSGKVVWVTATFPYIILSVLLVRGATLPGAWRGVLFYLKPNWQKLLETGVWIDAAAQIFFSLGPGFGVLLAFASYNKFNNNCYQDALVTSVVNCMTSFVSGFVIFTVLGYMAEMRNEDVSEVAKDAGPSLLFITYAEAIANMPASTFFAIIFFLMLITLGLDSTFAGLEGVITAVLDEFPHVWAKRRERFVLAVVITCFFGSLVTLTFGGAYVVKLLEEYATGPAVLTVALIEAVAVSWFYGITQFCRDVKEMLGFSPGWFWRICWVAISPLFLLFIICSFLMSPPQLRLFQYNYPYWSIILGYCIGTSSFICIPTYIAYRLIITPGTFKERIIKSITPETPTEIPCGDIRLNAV", "assay": "Safety panel screening, serotonin transporter neurotransmitter uptake", "format": "cell-based", "settings": "read-out: Mean percentage inhibition (%) at 10 μM, SET"}, "[3]": {"assay": "Protein binding in mouse brain homogenates", "format": "in vitro ADME"}},
  "note": "Read-outs that look alike come from different tables or passages of the source.",
  "data": [
    {"molecule": "Cn1cc(-c2cc(Cl)c(Cl)c3sc4c(c23)CN(C(=O)CO)CC4)cn1", "note": "[Compound 48]", "values": [
      {"measurement": "Agonist Mode Mean percentage activation (%) at 10 μM, 5HT2B", "setting": "5HT2B; agonist mode", "result": "−0.48", "unit": "%"},
      {"measurement": "inhibition at 10 µM", "setting": "5HT2B; antagonist mode, read-out: Antagonist Mode Mean percentage inhibition (%) at 10 μM, 5HT2B", "result": 34.5, "unit": "%"},
      {"measurement": "inhibition at 10 µM", "setting": "NFkB-SEAP; THP-1, 10 μM", "result": "< 24", "unit": "%"},
      {"measurement": "inhibition at 30 µM", "setting": "NFkB-SEAP; THP-1, 30 μM", "result": "50 to 74", "unit": "%"},
      {"measurement": "Remaining (NCF = 60 min)", "setting": "[1]; mouse liver microsomes, 60 min, no co-factor (no NADPH)", "result": 94.7, "unit": "%"},
      {"measurement": "Remaining (T = 60 min)", "setting": "[1]; mouse liver microsomes, 60 min with NADPH", "result": 88.1, "unit": "%"},
      {"measurement": "CLint scaled", "setting": "[1]; mouse, liver microsomes", "result": 87.2, "unit": "mL/min/kg"},
      {"measurement": "half-life", "setting": "[1]; mouse, liver microsomes", "result": 2, "unit": "min"},
      {"measurement": "microsomal CLint", "setting": "[1]; mouse, liver microsomes", "result": 679, "unit": "µL/min/mg"},
      {"measurement": "AUC_%Extrap_obs (Brain)", "setting": "[2]; brain", "result": 0.813, "unit": "%"},
      {"measurement": "AUClast/D (Brain)", "setting": "[2]; brain", "result": 5081, "unit": "mg·h/mL"},
      {"measurement": "Cmax (Brain)", "setting": "[2]; brain", "result": 19853, "unit": "ng/mL"},
      {"measurement": "Kp", "setting": "[2]; mouse, ip, read-out: AUClast Ratio (brain/plasma)", "result": 3.79},
      {"measurement": "Kp", "setting": "[2]; mouse, ip, read-out: Cmax Ratio (brain/plasma)", "result": 3.14},
      {"measurement": "AUC(0-inf)", "setting": "[2]; mouse, ip, brain, read-out: AUCInf (Brain)", "result": 128000, "unit": "ng·h/mL"},
      {"measurement": "AUC(0-t)", "setting": "[2]; mouse, ip, brain, read-out: AUClast (Brain)", "result": 127000, "unit": "ng·h/mL"},
      {"measurement": "MRT inf", "setting": "[2]; mouse, ip, brain, read-out: MRTInf_obs (Brain)", "result": 4.69, "unit": "h"},
      {"measurement": "half-life", "setting": "[2]; mouse, ip, brain, read-out: T1/2 (Brain) (converted)", "result": 3.45, "unit": "h"},
      {"measurement": "Tmax", "setting": "[2]; mouse, ip, brain, read-out: Tmax (Brain)", "result": 2, "unit": "h"},
      {"measurement": "Cmax", "setting": "[2]; mouse, ip, plasma", "result": 6320, "unit": "ng/mL"},
      {"measurement": "AUC(0-inf)", "setting": "[2]; mouse, ip, plasma, read-out: AUCInf (plasma)", "result": 33500, "unit": "ng·h/mL"},
      {"measurement": "AUC(0-t)", "setting": "[2]; mouse, ip, plasma, read-out: AUClast (plasma)", "result": 33500, "unit": "ng·h/mL"},
      {"measurement": "MRT inf", "setting": "[2]; mouse, ip, plasma, read-out: MRTInf_obs (plasma)", "result": 4.95, "unit": "h"},
      {"measurement": "half-life", "setting": "[2]; mouse, ip, plasma, read-out: T1/2 (plasma) (converted)", "result": 4.53, "unit": "h"},
      {"measurement": "Tmax", "setting": "[2]; mouse, ip, plasma, read-out: Tmax (plasma)", "result": 1, "unit": "h"},
      {"measurement": "AUC_%Extrap_obs (plasma)", "setting": "[2]; plasma", "result": 0.0394, "unit": "%"},
      {"measurement": "AUClast/D (plasma)", "setting": "[2]; plasma", "result": 1339, "unit": "mg·h/mL"},
      {"measurement": "inhibition at 1 µM", "setting": "h-cGAS; read-out: h-cGAS, conc. 1 μM", "result": "0 to 24", "unit": "%"},
      {"measurement": "inhibition at 10 µM", "setting": "h-cGAS; read-out: h-cGAS, conc. 10 μM", "result": "50 to 74", "unit": "%"},
      {"measurement": "inhibition at 10 µM", "setting": "hERG", "result": 63, "unit": "%"},
      {"measurement": "inhibition at 10 µM", "setting": "PDE4D2", "result": 56.4, "unit": "%"},
      {"measurement": "inhibition at 10 µM", "setting": "m-cGAS", "result": "0 to 24", "unit": "%"},
      {"measurement": "Cell viability 10 μM", "setting": "THP1 cells; 10 μM", "result": "+++ (+, ++, and +++ mean the compound respectively shows 25-49%; 50-74%; or 75-100% viability to cells)"},
      {"measurement": "Cell viability 30 μM", "setting": "THP1 cells; 30 μM", "result": "+++ (+, ++, and +++ mean the compound respectively shows 25-49%; 50-74%; or 75-100% viability to cells)"},
      {"measurement": "inhibition at 10 µM", "setting": "IFNB; THP-1, 10 μM", "result": "25 to 49", "unit": "%"},
      {"measurement": "inhibition at 30 µM", "setting": "IFNB; THP-1, 30 μM", "result": "50 to 74", "unit": "%"},
      {"measurement": "Agonist Mode Mean percentage activation (%) at 10 μM, D1", "setting": "D1; agonist mode", "result": 4.36, "unit": "%"},
      {"measurement": "inhibition at 10 µM", "setting": "D1; antagonist mode, read-out: Antagonist Mode Mean percentage inhibition (%) at 10 μM, D1", "result": 6.62, "unit": "%"},
      {"measurement": "inhibition at 10 µM", "setting": "SET", "result": 46.2, "unit": "%"},
      {"measurement": "LogK", "setting": "[3]", "result": ">4.17"},
      {"measurement": "% Remaining at 6 hr", "setting": "[3]; 6 hr", "result": 92.46, "unit": "%"},
      {"measurement": "recovery at 6 h", "setting": "[3]; brain homogenate", "result": "< 91.1", "unit": "%"},
      {"measurement": "fraction unbound at 6 hr", "setting": "[3]; brain homogenate, read-out: % BoundBrain (converted)", "result": "< 0.0001"}
    ]}
  ]
}
